From patent publication EP0100673A2, “A method of enhancing neurofiber regrowth” (THE RESEARCH FOUNDATION OF STATE UNIVERSITY OF NEW YORK, priority 1982, dated 1984)

Columns and labels:
[1] = tested on: muscles of the operated hindlimb; assay: Wet weight of hindlimb muscles after sciatic nerve severing and microsurgical repair; type: in vivo, rat; conditions: for Average Wet Weight (g) of Muscles: 12 mg/kg in 5% DMSO, bath + i.m. twice weekly; for % Weight (+)gain or (-)loss Treated vs. Control / % Weight (+) gain (-) loss Treated vs. control / % Weight (+)gain or (-)loss: muscle wet weight; for % Weight (+) gain (-) loss Treated vs. control: One Week; for % Weight (+)gain or (-)loss: Three Month, treated vs. control
Procedure: (§1) lwenty raty art anenthetizve with sel rompun (0.5 cc total volume). The right sciatic nerve is exposed and severed with microneuroscissors, and subsequently repaired microsurgically with 6-8 circumferential microsutures using 10-0 nylon. Immediately following surgery the treated animals receive 12 mg/kg Ac leupeptin in 5% DMSO (dimethylsulphoxide) as a bath on their sciatic nerve, 0.25 cc. total volume. Then the treated animals are injected intramuscularly in right hindlimb with 0.25 cc of a solution containing 12 mg/kg Ac leupeptin in 5% DMSO. Control animals receive the same surgical treatment, but the bath and intramuscular injection consist only of the solvent and 5% DMSO.
(§2) Thereafter, treated animals are injected twice weekly in the operated hindlimb with 12 mg/kg Ac leupeptin in 5% DMSO (0.25 cc total volume) for periods of 1 week, 1 month, two months, three months - and six months. Control animals are injected with 0.25 cc of 5% DMSO twice weekly in the operated hindlimb for the same time period.
(§3) Two treated and two control animals are assigned to each of the stated time periods.
(§4) All animals are sacrified by an overdose of pentobarbital, 1.0 cc total volume. The gastro- cnemius, soleus and extensor digitorum longus muscles of the operated hindlimb are execised from origin to insertion, weighed and then frozen in isopentane in liquid nitrogen […]. For light microscopy, cryostat sections are cut, placed on slides and stained with hematoxylin and eosin and/or ATPase histochemistry at pH's of 4.3 and 10.4. Myofiber diameters are determined by photographing hematoxylin and eosin sections at a constant magnification in the light microscope.

[2] = tested on: muscles of the operated hindlimb; assay: Myofiber diameter by light microscopy after sciatic nerve severing and microsurgical repair; type: in vivo, rat; conditions: for Average Myofiber Diameter (µm) by Light Microscopy: 12 mg/kg in 5% DMSO, bath + i.m. twice weekly; for % Difference Treated vs. Control: myofiber diameter
Procedure: as §1, §2, §3, §4

CC(=O)N[C@@H](CC(C)C)C(=O)N[C@@H](CC(C)C)C(=O)N[C@H](C=O)CCCNC(=N)N [Ac leupeptin, acetyl-L-leu-L-leu-L-argininal]
Average Wet Weight (g) of Muscles ([1]; Three Month Treated, SOLEUS): 0.248 g
Average Wet Weight (g) of Muscles ([1]; Two Months Treated, E.D.L.): 0.202 g
Average Wet Weight (g) of Muscles ([1]; Two Months Treated, GASTROCNEMIUS): 1.371 g
Average Wet Weight (g) of Muscles ([1]; Two Months Treated, SOLEUS): 0.425 g
average wet weight in grams in treated muscles ([1]; all time periods and muscles, vs. control): significantly greater than control
% Weight (+)gain or (-)loss Treated vs. Control ([1]; One Month, E.D.L.): +62%
% Weight (+)gain or (-)loss Treated vs. Control ([1]; One Month, GASTROCNEMIUS): +30%
% Weight (+)gain or (-)loss Treated vs. Control ([1]; One Month, SOLEUS): +19%
% Weight (+) gain (-) loss Treated vs. control ([1]; E.D.L.): +18%
% Weight (+) gain (-) loss Treated vs. control ([1]; GASTROCNEMIUS): +37%
% Weight (+) gain (-) loss Treated vs. control ([1]; SOLEUS): +13%
% Weight (+)gain or (-)loss Treated vs. Control ([1]; Six Month, E.D.L.): +18%
% Weight (+)gain or (-)loss Treated vs. Control ([1]; Six Month, GASTROCNEMIUS): +15%
% Weight (+)gain or (-)loss Treated vs. Control ([1]; Six Month, SOLEUS): +23%
% Weight (+)gain or (-)loss ([1]; E.D.L.): +13%
% Weight (+)gain or (-)loss ([1]; GASTROCNEMIUS): +18%
% Weight (+)gain or (-)loss ([1]; SOLEUS): +9%
% Weight (+)gain or (-)loss Treated vs. Control ([1]; Two Months, E.D.L.): +43%
% Weight (+)gain or (-)loss Treated vs. Control ([1]; Two Months, GASTROCNEMIUS): +14%
% Weight (+)gain or (-)loss Treated vs. Control ([1]; Two Months, SOLEUS): +9%
Average Myofiber Diameter (µm) by Light Microscopy ([2]; One Month Treated, E.D.L.): 34.1 µm
Average Myofiber Diameter (µm) by Light Microscopy ([2]; One Month Treated, GASTROCNEMIUS): 34.5 µm
Average Myofiber Diameter (µm) by Light Microscopy ([2]; One Month Treated, SOLEUS): 39.4 µm
Average Myofiber Diameter (µm) by Light Microscopy ([2]; One Week Treated, E.D.L.): 44.6 µm
Average Myofiber Diameter (µm) by Light Microscopy ([2]; One Week Treated, GASTROCNEMIUS): 62.3 µm
Average Myofiber Diameter (µm) by Light Microscopy ([2]; One Week Treated, SOLEUS): 49.2 µm
Average Myofiber Diameter (µm) by Light Microscopy ([2]; Six Month Treated, E.D.L.): 75.3 µm
Average Myofiber Diameter (µm) by Light Microscopy ([2]; Six Month Treated, GASTROCNEMIUS): 73.1 µm
Average Myofiber Diameter (µm) by Light Microscopy ([2]; Six Month Treated, SOLEUS): 79.5 µm
Average Myofiber Diameter (µm) by Light Microscopy ([2]; Three Month Treated, E.D.L.): 44.3 µm
Average Myofiber Diameter (µm) by Light Microscopy ([2]; Three Month Treated, GASTROCNEMIUS): 57.2 µm
Average Myofiber Diameter (µm) by Light Microscopy ([2]; Three Month Treated, SOLEUS): 47.9 µm
Average Myofiber Diameter (µm) by Light Microscopy ([2]; Two Month Treated, E.D.L.): 28.9 µm
Average Myofiber Diameter (µm) by Light Microscopy ([2]; Two Month Treated, GASTROCNEMIUS): 35.4 µm
Average Myofiber Diameter (µm) by Light Microscopy ([2]; Two Month Treated, SOLEUS): 42.3 µm
% Difference Treated vs. Control ([2]; One Month, E.D.L.): +7%
% Difference Treated vs. Control ([2]; One Month, GASTROCNEMIUS): +3%
% Difference Treated vs. Control ([2]; One Month, SOLEUS): +24%
% Difference Treated vs. Control ([2]; One Week, E.D.L.): +5%
% Difference Treated vs. Control ([2]; One Week, GASTROCNEMIUS): +23%
% Difference Treated vs. Control ([2]; One Week, SOLEUS): +9%
% Difference Treated vs. Control ([2]; Six Month, E.D.L.): +29%
% Difference Treated vs. Control ([2]; Six Month, GASTROCNEMIUS): +26%
% Difference Treated vs. Control ([2]; Six Month, SOLEUS): +30%
% Difference Treated vs. Control ([2]; Three Month, E.D.L.): +18%
% Difference Treated vs. Control ([2]; Three Month, GASTROCNEMIUS): +3%
% Difference Treated vs. Control ([2]; Three Month, SOLEUS): +9%
% Difference Treated vs. Control ([2]; Two Month, E.D.L.): +10%
% Difference Treated vs. Control ([2]; Two Month, GASTROCNEMIUS): +18%
% Difference Treated vs. Control ([2]; Two Month, SOLEUS): +10%
myofiber diameter ([2]; treated muscle compared to control): significantly greater myofiber diameter when compared to control
